{"source": "the NIST ThermoML archive (doi:10.1021/je9008206)", "key": {"[1]": {"details": "Crystal; DTA"}, "[2]": {"assay": "Molar enthalpy of transition or fusion", "details": "Crystal; DSC"}}, "note": "± gives the expanded uncertainty stated by the source.", "data": [{"smiles": "O=C1OC(=O)c2c(Cl)cccc21", "note": "[3-chlorophthalic anhydride]", "values": [{"measurement": "Normal melting temperature", "setting": "[1]", "result": "124.80 ± 0.53", "unit": "°C"}, {"measurement": "Molar enthalpy of transition or fusion", "setting": "[2]", "result": "3.19 ± 0.206", "unit": "kcal/mol"}]}, {"smiles": "O=C1OC(=O)c2cc(Cl)ccc21", "note": "[4-chlorophthalic anhydride]", "values": [{"measurement": "Normal melting temperature", "setting": "[1]", "result": "94.20 ± 0.53", "unit": "°C"}, {"measurement": "Molar enthalpy of transition or fusion", "setting": "[2]", "result": "7.9 ± 0.239", "unit": "kcal/mol"}]}]}
